Here are results for 24 molecules from US7420001B2 (Wyeth, priority 2003, dated 2008).

Like-named read-outs stand apart in the source and are kept apart here.

One experiment addresses T1, MMP-2 (Homo sapiens, UniProt P08253).
T1 construct: purchased Oncogene Research Products (Calbiochem) PF023
T1 sequence (P08253 110-660): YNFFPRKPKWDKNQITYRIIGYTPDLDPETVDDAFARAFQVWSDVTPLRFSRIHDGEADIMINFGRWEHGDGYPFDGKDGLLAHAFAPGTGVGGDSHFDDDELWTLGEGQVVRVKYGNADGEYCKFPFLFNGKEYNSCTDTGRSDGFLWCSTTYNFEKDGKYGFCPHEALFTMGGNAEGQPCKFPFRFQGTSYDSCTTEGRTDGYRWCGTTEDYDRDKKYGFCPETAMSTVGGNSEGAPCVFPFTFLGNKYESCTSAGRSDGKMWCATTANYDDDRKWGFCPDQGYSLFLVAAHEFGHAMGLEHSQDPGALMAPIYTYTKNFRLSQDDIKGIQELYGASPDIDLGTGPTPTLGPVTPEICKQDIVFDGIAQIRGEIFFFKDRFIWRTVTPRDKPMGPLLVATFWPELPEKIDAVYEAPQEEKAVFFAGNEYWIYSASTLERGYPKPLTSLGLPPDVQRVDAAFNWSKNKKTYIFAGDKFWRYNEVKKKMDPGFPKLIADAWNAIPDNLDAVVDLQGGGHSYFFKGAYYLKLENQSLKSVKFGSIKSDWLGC
Kind of experiment: In-vitro fluorescence assay of MMP-2 activity. Type of experiment: biochemical. The conditions noted are these: recombinant human MMP-2; read-out: MMP-2 IC50.

For a further experiment, the target named is T2, MMP-13 (Homo sapiens, UniProt P45452).
T2 construct: made in house
Nature of the experiment: In-vitro fluorescence assay of MMP-13 activity. Type of experiment: biochemical.

[1] abbreviates: recombinant human catalytic domain of MMP-13, read-out: MMP-13 IC50.
Setting [2] is: MMP-13 IC50, recombinant human catalytic domain of MMP-13.

Description for MMP-13: A continuous assay was used in which the substrate is a synthetic peptide containing a fluorescent group (7-methoxycoumarin; Mca) which is quenched by energy transfer to a 2,4-dinitrophenyl group. […] The substrate used was Mca-PQGL-(3-[2,4-dinitrophenyl]-L-2,3-diaminopropionyl)-AR-OH (denoted as Wammp-5, custom synthesized by AnaSpec, Inc.). The assay buffer consisted of 50 mM Hepes (pH 7.4), 100 mM NaCl, 5 mM CaCl2, and 0.005% Brij-35. Each well of black polystyrene 96-well plates contained a 200 μL reaction mixture consisting of assay buffer, purified MMP (final concentration of 0.5 nM, prepared by diluting with the assay buffer), and varied concentrations of inhibitor (prepared by serially diluting a given inhibitor in DMSO in 96-well polypropylene plate). […] The enzymatic reactions were initiated by adding the substrate to a final concentration of 20 μM, and mixing 10 times with a pipette. The final DMSO concentration in the assay was 6.0%.
(§1) Plots of the inhibitor concentration vs. the percent inhibition were fit to the following equation: y=(a−d)/[1+(x/c)^b]+d, a general sigmoidal curve with Hill slope, a to d. x is the inhibitor concentration under test. y is the percent inhibition. a is the limiting response as x approaches zero. As x increases without bound, y tends toward its limit d. c is the inflection point (IC50) for the curve. That is, y is halfway between the lower and upper asymptotes when x=c. b is the slope factor or Hill coefficient.
Excerpt for MMP-2: A continuous assay was used in which the substrate is a synthetic peptide containing a fluorescent group (7-methoxycoumarin; Mca) which is quenched by energy transfer to a 2,4-dinitrophenyl group. […] The source of enzyme in the assay was the recombinant human MMP-2 (66 kDa) purchased from Oncogene Research Products (catalog number PF023 from Calbiochem). The substrate used was Mca-PQGL-(3-[2,4-dinitrophenyl]-L-2,3-diaminopropionyl)-AR-OH (denoted as Wammp-5, custom synthesized by AnaSpec, Inc.). The assay buffer consisted of 50 mM Hepes (pH 7.4), 100 mM NaCl, 5 mM CaCl2, and 0.005% Brij-35. […] The enzymatic reactions were initiated by adding the substrate to a final concentration of 20 μM, and mixing 10 times with a pipette. The final DMSO concentration in the assay was 6.0%.
as §1

On to `CCc1ccc2oc(C(=O)Nc3ccc(-c4ccc(S(=O)(=O)N[C@H](C(=O)O)C(C)C)cc4)cc3)c(C)c2c1O` [Example 90, N-[(4′-{[(5-Ethyl-4-hydroxy-3-methyl-1-benzofuran-2-yl)carbonyl]amino}-1,1′-biphenyl-4-yl)sulfonyl]-L-valine], for which the values for the 50% inhibitory concentration (IC50) at MMP-2 and on MMP-13 (setting [1]) were 1.76 µM and 0.0071 µM, respectively.

On to `Cc1c(C(=O)Nc2ccc(-c3ccc(S(=O)(=O)N[C@H](C(=O)O)C(C)C)cc3)cc2)oc2cccc(C3COC(C)(C)O3)c12` (stereo partly drawn) [Example 91, N-{[4′-({[4-(2,2-Dimethyl-1,3-dioxolan-4-yl)-3-methyl-1-benzofuran-2-yl]carbonyl}amino)-1,1′-biphenyl-4-yl]sulfonyl}-L-valine], for which the IC50 came to 2.23 µM at MMP-2 and 0.0069 µM at MMP-13 (setting [1]).

In the case of `Cc1c(C(=O)Nc2ccc(-c3ccc(S(=O)(=O)N[C@H](C(=O)O)C(C)C)cc3)cc2)oc2cccc(CO)c12` [Example 92, N-{[4′-({[4-(Hydroxymethyl)-3-methyl-1-benzofuran-2-yl]carbonyl}amino)-1,1′-biphenyl-4-yl]sulfonyl}-L-valine], the IC50 on MMP-2 is 3.76 µM; on MMP-13 (setting [1]) it was 0.025 µM.

Take `Cc1cccc2oc(C(=O)Nc3ccc(-c4ccc(S(=O)(=O)N[C@H](C(=O)O)C(C)C)cc4)cc3)c(C)c12` [Example 93, N-[(4′-{[(3,4-Dimethyl-1-benzofuran-2-yl)carbonyl]amino}-1,1′-biphenyl-4-yl)sulfonyl]-L-valine]: the IC50 on MMP-2 worked out at 1.15 µM; at MMP-13 (setting [1]), 0.0048 µM.

Take `CC(=O)c1cccc2oc(C(=O)Nc3ccc(-c4ccc(S(=O)(=O)N[C@H](C(=O)O)C(C)C)cc4)cc3)c(C)c12` [Example 94, N-[(4′-{[(4-Acetyl-3-methyl-1-benzofuran-2-yl)carbonyl]amino}-1,1′-biphenyl-4-yl)sulfonyl]-L-valine]: the IC50 at MMP-2 is 0.673 µM; at MMP-13 (setting [1]), 0.0045 µM.

With `Cc1c(C(=O)Nc2ccc(-c3ccc(S(=O)(=O)N[C@H](C(=O)O)C(C)C)cc3)cc2)oc2cccc(C(C)O)c12` (stereo partly drawn) [Example 95, N-{[4′-({[4-(1-Hydroxyethyl)-3-methyl-1-benzofuran-2-yl]carbonyl}amino)-1,1′-biphenyl-4-yl]sulfonyl}-L-valine], the IC50 at MMP-2 is 2.07 µM; on MMP-13 (setting [1]), 0.0084 µM.

Turning to `C=Cc1cccc2oc(C(=O)Nc3ccc(-c4ccc(S(=O)(=O)N[C@H](C(=O)O)C(C)C)cc4)cc3)c(C)c12` [Example 96, N-[(4′-{[(3-methyl-4-vinyl-1-benzofuran-2-yl)carbonyl]amino}-1,1′-biphenyl-4-yl)sulfonyl]-L-valine], the IC50 was found to be 0.625 µM at MMP-2 and 0.0044 µM on MMP-13 (setting [1]).

`Cc1c(C(=O)Nc2ccc(-c3ccc(S(=O)(=O)N[C@H](C(=O)O)C(C)C)cc3)cc2)oc2cccc(C(O)CO)c12` (stereo partly drawn) [Example 97, N-{[4′-({[4-(1,2-dihydroxyethyl)-3-methyl-1-benzofuran-2-yl]carbonyl}amino)-1,1′-biphenyl-4-yl]sulfonyl}-L-valine]: the IC50 on MMP-2 turned out to be 2.86 µM; at MMP-13 (setting [1]), 0.014 µM.

For `C=Cc1cccc2oc(C(=O)Nc3ccc(-c4ccc(S(=O)(=O)N(C)[C@H](C(=O)O)C(C)C)cc4)cc3)c(C)c12` [Example 98, N-methyl-N-[(4′-{[(3-methyl-4-vinyl-1-benzofuran-2-yl)carbonyl]amino}-1,1′-biphenyl-4-yl)sulfonyl]-L-valine], the IC50 at MMP-2 is 0.89 µM; at MMP-13 (setting [1]), 0.0841 µM.

For the molecule `Cc1c(C(=O)Nc2ccc(-c3ccc(S(=O)(=O)N(C)[C@H](C(=O)O)C(C)C)cc3)cc2)oc2cccc(C(O)CO)c12` (stereo partly drawn) [Example 99, N-{[4′-({[4-(1,2-dihydroxyethyl)-3-methyl-1-benzofuran-2-yl]carbonyl}amino)-1,1′-biphenyl-4-yl]sulfonyl}-N-methyl-L-valine], the IC50 at MMP-2 was 13.2 µM; at MMP-13 (setting [1]), 0.07 µM.

For `COCc1cccc2oc(C(=O)Nc3ccc(-c4ccc(S(=O)(=O)N[C@H](C(=O)O)C(C)C)cc4)cc3)c(C)c12` [Example 100, N-{[4′-({[4-(methoxymethyl)-3-methyl-1-benzofuran-2-yl]carbonyl}amino)-1,1′-biphenyl-4-yl]sulfonyl}-L-valine], the IC50 was determined as 2.4 µM at MMP-2 and 0.0026 µM at MMP-13 (setting [1]).

`COC(C)c1cccc2oc(C(=O)Nc3ccc(-c4ccc(S(=O)(=O)N[C@H](C(=O)O)C(C)C)cc4)cc3)c(C)c12` (stereo partly drawn) [Example 101, N-{[4′-({[4-(1-methoxyethyl)-3-methyl-1-benzofuran-2-yl]carbonyl}amino)-1,1′-biphenyl-4-yl]sulfonyl}-L-valine]: the figures for the IC50 on MMP-2 and at MMP-13 (setting [1]) were 2 µM and 0.0058 µM, respectively.

Turning to `COCCc1cccc2oc(C(=O)Nc3ccc(-c4ccc(S(=O)(=O)N[C@H](C(=O)O)C(C)C)cc4)cc3)c(C)c12` [Example 102, N-{[4′-({[4-(2-methoxyethyl)-3-methyl-1-benzofuran-2-yl]carbonyl}amino)-1,1′-biphenyl-4-yl]sulfonyl}-L-valinate], the IC50 at MMP-2 was determined as 1.52 µM; on MMP-13 (setting [1]), 0.0057 µM.

For the molecule `CC(C)Oc1cccc2oc(C(=O)Nc3ccc(-c4ccc(S(=O)(=O)N[C@H](C(=O)O)C(C)C)cc4)cc3)cc12` [Example 103, N-[(4′-{[(4-Isopropoxy-1-benzofuran-2-yl)carbonyl]amino}-1,1′-biphenyl-4-yl)sulfonyl]-L-valine], the values for the IC50 on MMP-2 and at MMP-13 (setting [1]) were 0.0784 µM and 0.0039 µM, respectively.

As for `COc1ccc2oc(C(=O)Nc3ccc(-c4ccc(S(=O)(=O)N[C@H](C(=O)O)C(C)C)cc4)cc3)cc2c1` [Example 104, N-[(4′-{[(5-methoxy-1-benzofuran-2-yl)carbonyl]amino}-1,1′-biphenyl-4-yl)sulfonyl]-L-valine], the IC50 came out at 0.0015 µM on MMP-2 and 0.0007 µM on MMP-13 (setting [1]).

For the molecule `CCCOc1cccc2oc(C(=O)Nc3ccc(-c4ccc(S(=O)(=O)N[C@H](C(=O)O)C(C)C)cc4)cc3)c(C)c12` [Example 107, (S)-3-Methyl-2-{4′-[(3-methyl-4-propoxy-benzofuran-2-carbonyl)-amino]-biphenyl-4-sulfonylamino}-butyric acid], the IC50 at MMP-2 is 4.22 µM; at MMP-13 (setting [1]), 0.011 µM.

As to `Cc1c(C(=O)Nc2ccc(-c3ccc(S(=O)(=O)N[C@H](C(=O)O)C(C)C)cc3)cc2)oc2cccc(OC(C)C)c12` [Example 108, (S)-2-{4′-[(4-Isopropoxy-3-methyl-benzofuran-2-carbonyl)-amino]-biphenyl-4-sulfonylamino}-3-methyl-butyric acid], the half-maximal inhibitory concentration (IC50) was 4.29 µM on MMP-2 and 0.013 µM on MMP-13 (setting [1]).

Consider `Cc1c(C(=O)Nc2ccc(-c3ccc(S(=O)(=O)N[C@H](C(=O)O)C(C)C)cc3)cc2)oc2cccc(-c3ccncc3)c12` [Example 112, (S)-3-Methyl-2-{4′-[(3-methyl-4-pyridin-4-yl-benzofuran-2-carbonyl)-amino]-biphenyl-4-sulfonylamino}-butyric acid], for which the IC50 on MMP-2 is 2.67 µM; at MMP-13 (setting [1]) it was 0.0085 µM.

For the molecule `Cc1c(C(=O)Nc2ccc(-c3ccc(S(=O)(=O)N[C@H](C(=O)O)C(C)C)cc3)cc2)oc2cccc(-c3ccoc3)c12` [Example 113, (S)-2-{4′-[(4-Furan-3-yl-3-methyl-benzofuran-2-carbonyl)-amino]-biphenyl-4-sulfonylamino}-3-methyl-butyric acid], the IC50 at MMP-2 was determined as 2.06 µM; at MMP-13 (setting [2]), 0.0064 µM.

`Cc1c(C(=O)Nc2ccc(-c3ccc(S(=O)(=O)N[C@H](C(=O)O)C(C)C)cc3)cc2)oc2cccc(N3CCOCC3)c12` [Example 114, (S)-3-methyl-2-{4′-[(3-methyl-4-morpholin-4-yl-benzofuran-2-carbonyl)-amino]-biphenyl-4-sulfonylamino}-butyric acid]: the values for the concentration for half-maximal inhibition (IC50) on MMP-2 and at MMP-13 (setting [2]) were 1.63 µM and 0.032 µM, respectively.

Regarding `Cc1c(C(=O)Nc2ccc(-c3ccc(S(=O)(=O)N[C@H](C(=O)O)C(C)C)cc3)cc2)oc2ccc(Cl)c(OC(C)C)c12` [Example 115, (S)-2-{4′-[(5-Chloro-4-isopropoxy-3-methyl-benzofuran-2-carbonyl)-amino]-biphenyl-4-sulfonylamino}-3-methyl-butyric acid], the concentration for half-maximal inhibition (IC50) on MMP-2 was 3.01 µM; on MMP-13 (setting [1]) it was 0.011 µM.

Take `COc1c(Cl)cc(Cl)c2oc(C(=O)Nc3ccc(-c4ccc(S(=O)(=O)N[C@H](C(=O)O)C(C)C)cc4)cc3)c(C)c12` [Example 117, (S)-2-{4′-[(5,7-Dichloro-4-methoxy-3-methyl-benzofuran-2-carbonyl)-amino]-biphenyl-4-sulfonylamino}-3-methyl-butyric acid]: the IC50 at MMP-2 is 20 µM; on MMP-13 (setting [1]) it was 0.199 µM.

Take `COc1c(I)ccc2oc(C(=O)Nc3ccc(-c4ccc(S(=O)(=O)N[C@H](C(=O)O)C(C)C)cc4)cc3)c(C)c12` [Example 120, (S)-2-{4′-[(5-Iodo-4-methoxy-3-methyl-benzofuran-2-carbonyl)-amino]-biphenyl-4-sulfonylamino}-3-methyl-butyric acid]: the IC50 at MMP-2 was 1.37 µM; on MMP-13 (setting [1]) it was 0.0021 µM.

As for `CC(=O)c1ccc2oc(C(=O)Nc3ccc(-c4ccc(S(=O)(=O)N[C@H](C(=O)O)C(C)C)cc4)cc3)c(C)c2c1O` [Example 123, (S)-2-{4′-[(5-Acetyl-4-hydroxy-3-methyl-benzofuran-2-carbonyl)-amino]-biphenyl-4-sulfonylamino}-3-methyl-butyric acid], the IC50 on MMP-2 was determined as 0.063 µM; on MMP-13 (setting [1]), 0.0032 µM.

As a reminder, the IC50 is the concentration that gives 50% inhibition.
